Experimental data as given in US9457039B2, “2′-disubstituted nucleoside derivatives and methods of use thereof for the treatment of viral diseases” (Merck Sharp & Dohme Corp., priority 2012, dated 2016).

tested on: HCV replicon (1b) cells; experiment: Cell-based HCV replicon assay (replicon RNA level by real time PCR, Taqman); settings: HCV replicon cells, harvested on day 3; EC50 = concentration giving ΔCT=1 over baseline; read-out: 1b EC50
Protocol: To measure cell-based anti-HCV activity of selected compounds of the present invention, replicon cells were seeded at 5000 cells/well in 96-well collagen I-coated Nunc plates in the presence of the test compound. Various concentrations of test compound, typically in 10 serial 2-fold dilutions, were added to the assay mixture, with the starting concentration ranging from 250 μM to 1 μM. The final concentration of dimethylsulfoxide was 0.5% fetal bovine serum was 5%, in the assay media. Cells were harvested on day 3 by the addition of 1× cell lysis buffer (Ambion cat #8721).
The replicon RNA level was measured using real time PCR (Taqman assay). The amplicon was located in 5B. The PCR primers were: 5B.2F, […] (SEQ ID. NO. 1); 5B.2R, […] (SEQ ID. NO. 2); the probe sequence was FAM-labeled […] (SEQ ID. NO. 3). GAPDH RNA was used as endogenous control and was amplified in the same reaction as NS5B (multiplex PCR) using primers and VIC-labeled probe recommended by the manufacturer (PE Applied Biosystem). The real-time RT-PCR reactions were run on ABI PRISM 7900HT Sequence Detection System using the following program: 48° C. for 30 minutes, 95° C. for 10 minutes, 40 cycles of 95° C. for 15 sec, 60° C. for 1 minute. The ΔCT values (CT5B-CTGAPDH) were plotted against the concentration of test compound and fitted to the sigmoid dose-response model using XLfit4 (MDL). […] Alternatively, to quantitate the absolute amount of replicon RNA, a standard curve was established by including serially diluted T7 transcripts of replicon RNA in the Taqman assay. All Taqman reagents were from […] Applied Biosystems. Such an assay procedure was described in detail in e.g. Malcolm et al., Antimicrobial Agents and Chemotherapy 50: 1013-1020 (2006).

Row | SMILES | EC50 [µM]
1 | CC(C)OP1(=O)OC[C@H]2O[C@@H](c3cnn4c(N)ncnc34)[C@](C)(N)[C@@H]2O1 (stereo partly shown) [Compound 21] | > 100
2 | CC(C)OP1(=O)OC[C@H]2O[C@@H](c3cnc4c(N)ncnn34)[C@](C)(N)[C@@H]2O1 (stereo partly shown) [Compound 19] | > 100

same assay, conditions: Hepatitis C virus, 72 h; read-out: 1b EC50

Row | SMILES | EC50 [µM]
3 | C[C@@]1(N=[N+]=[N-])[C@H](O)[C@@H](CO)O[C@H]1c1cnc2c(N)ncnn12 [Compound 3] | > 100
4 | C[C@@]1(N)[C@H](O)[C@@H](CO)O[C@H]1c1cnn2c(N)ncnc12 [Compound 7] | > 100
5 | C[C@@]1(N=[N+]=[N-])[C@H](O)[C@@H](CO)O[C@H]1c1cnn2c(N)ncnc12 [Compound 4] | > 100
6 | CC(C)OP1(=O)OC[C@H]2O[C@@H](c3cnn4c(N)ncnc34)[C@](C)(N)[C@@H]2O1 (stereo partly shown) [Compound 20] | > 100
7 | CC(C)OP1(=O)OC[C@H]2O[C@@H](c3cnc4c(N)ncnn34)[C@](C)(N)[C@@H]2O1 (stereo partly shown) [Compound 18] | > 100
8 | C[C@@]1(N)[C@H](O)[C@@H](CO)O[C@H]1c1cnc2c(N)ncnn12 [Compound 6] | > 100

same assay, conditions: read-out: 1b EC50; HCV replicon cells, harvested on day 3; EC50 = concentration giving ΔCT=1 over baseline

Row | SMILES | EC50 [µM]
9 | CC(C)OC(=O)[C@H](C)NP(=O)(OC[C@H]1O[C@@H](c2cnn3c(N)ncnc23)[C@](C)(N)[C@@H]1O)Oc1ccccc1 (stereo partly shown) [Compound 15] | 28
10 | CC(C)OC(=O)[C@H](C)NP(=O)(OC[C@H]1O[C@@H](c2cnn3c(N)ncnc23)[C@](C)(N)[C@@H]1O)Oc1ccccc1 (stereo partly shown) [Compound 14] | > 100
